In ChEMBL document CHEMBL2073978, “Interactions of n-tetraalkylammonium compounds and biguanides with a human renal organic cation transporter (hOCT2)” (Pharm Res, 2002) one finds IC50 data, which are given here for 5 molecules.

Molecules are shown by their SMILES.

Assay [1] addresses T1, Solute carrier family 22 member 2 (Homo sapiens, UniProt O15244).
T1 sequence (O15244 whole entry): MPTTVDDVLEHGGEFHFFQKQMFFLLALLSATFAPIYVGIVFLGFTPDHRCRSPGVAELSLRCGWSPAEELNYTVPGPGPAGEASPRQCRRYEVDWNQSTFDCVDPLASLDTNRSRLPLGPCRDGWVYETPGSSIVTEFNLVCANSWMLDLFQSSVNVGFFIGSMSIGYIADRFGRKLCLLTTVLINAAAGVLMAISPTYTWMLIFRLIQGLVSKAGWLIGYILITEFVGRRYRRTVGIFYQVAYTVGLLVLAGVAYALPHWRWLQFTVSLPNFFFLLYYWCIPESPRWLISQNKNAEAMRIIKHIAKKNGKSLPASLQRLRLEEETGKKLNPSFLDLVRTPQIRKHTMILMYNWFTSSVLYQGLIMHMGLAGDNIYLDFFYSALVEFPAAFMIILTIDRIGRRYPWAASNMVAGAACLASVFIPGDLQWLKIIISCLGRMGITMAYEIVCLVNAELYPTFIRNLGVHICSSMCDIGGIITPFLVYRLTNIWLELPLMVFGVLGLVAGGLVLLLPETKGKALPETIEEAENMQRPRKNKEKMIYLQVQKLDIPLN
The assay is described as follows: (§1) TP_TRANSPORTER: inhibition of Cimetidine uptake (Cimetidine: 1 uM) in Xenopus laevis oocytes. The format is functional, cell-based, Oocyte.

The target of assay [2] is T1, Solute carrier family 22 member 2. The format is functional, cell-based, Xenopus laevis, Oocyte.
In assay [3] the target is T2, Solute carrier family 22 member 1 (Homo sapiens, UniProt O15245).
T2 sequence (O15245 whole entry): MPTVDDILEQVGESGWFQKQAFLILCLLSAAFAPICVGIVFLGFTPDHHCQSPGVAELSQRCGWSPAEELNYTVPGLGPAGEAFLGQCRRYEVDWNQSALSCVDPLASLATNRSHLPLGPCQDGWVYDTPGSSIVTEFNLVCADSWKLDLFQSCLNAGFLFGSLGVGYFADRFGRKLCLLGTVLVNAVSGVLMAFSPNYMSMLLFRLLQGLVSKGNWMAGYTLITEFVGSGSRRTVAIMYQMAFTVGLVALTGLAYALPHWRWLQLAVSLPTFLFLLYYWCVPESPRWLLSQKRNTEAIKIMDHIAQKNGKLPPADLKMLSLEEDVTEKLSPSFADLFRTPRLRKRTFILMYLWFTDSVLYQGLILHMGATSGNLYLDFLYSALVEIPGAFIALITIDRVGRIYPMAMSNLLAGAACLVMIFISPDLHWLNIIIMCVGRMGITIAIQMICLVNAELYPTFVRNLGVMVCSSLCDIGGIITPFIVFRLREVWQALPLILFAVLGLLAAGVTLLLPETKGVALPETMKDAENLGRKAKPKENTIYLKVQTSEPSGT
The description is as §1. The format is functional, cell-based, Oocyte.

Consider `CN(C)C(=N)N=C(N)N` [METFORMIN], for which, in assay [1], the half-maximal inhibitory concentration (IC50) (in general, the midpoint of a concentration-inhibition curve) came out at 1700 µM.

On to `CC[N+](CC)(CC)CC` [TETRYLAMMONIUM], for which, in assay [2], the IC50 was determined as 156 µM.

On to `[H]/N=C(/N)N/C(=N/[H])NCCc1ccccc1` [PHENFORMIN], for which the concentration for half-maximal inhibition (IC50) came out at 65 µM in assay [1] and 10 µM in assay [3].

On to `CCCC[N+](CCCC)(CCCC)CCCC` [TETRABUTHYLAMMONIUM], for which, in assay [2], half-maximal inhibition (IC50) was put at 120 µM.

In the case of `CCC[N+](CCC)(CCC)CCC` [TETRAPROPYLAMMONIUM], the IC50 in assay [2] turned out to be 128 µM.
